Data: US12366579B2, “Sulfur-heterocycle exchange chemistry and uses thereof” (University of Virginia Patent Foundation, priority 2019, dated 2025)
Blank lines part the entries; values can stand above or below the compound they belong to.

Experiments:
[1] = target: T1, human fumarylacetoacetase (FAAA) (Homo sapiens, UniProt P16930); assay: Chemical proteomics analysis and gel-based screen of human FAAA with HHS SuTEx ligands; type: binding
T1 construct: made in house; host or cells: HEK293T, soluble proteome
T1 sequence (P16930 whole entry): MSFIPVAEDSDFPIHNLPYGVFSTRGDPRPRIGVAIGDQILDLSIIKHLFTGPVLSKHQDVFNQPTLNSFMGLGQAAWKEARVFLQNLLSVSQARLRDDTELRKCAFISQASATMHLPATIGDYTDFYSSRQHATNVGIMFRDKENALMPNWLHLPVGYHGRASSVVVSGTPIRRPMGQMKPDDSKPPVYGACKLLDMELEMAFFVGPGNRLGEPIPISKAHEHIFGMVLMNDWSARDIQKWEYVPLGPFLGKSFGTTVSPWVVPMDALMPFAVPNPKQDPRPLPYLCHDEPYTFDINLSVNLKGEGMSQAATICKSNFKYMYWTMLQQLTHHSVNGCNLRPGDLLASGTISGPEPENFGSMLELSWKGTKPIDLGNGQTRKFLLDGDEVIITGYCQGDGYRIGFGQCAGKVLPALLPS
Method: FIGS. 44A-44C. Modification of human fumarylacetoacetase (FAAA) with HHS SuTEx ligands. FIG. 44A is a series of graphs showing the chemical proteomics analysis of human FAAA using an HHS SuTEx ligand, HHS0401 (25 μM) shown in FIG. 43. HHS0401 modifies the tyrosine at residue 244. FIG. 44B is an image of a gel-based chemical proteomic screen for human FAAA fragment ligands. Recombinant hFAAA-HEK293T soluble proteomes pretreated with indicated fragment (25 μM, 120 min) followed by labeling with HHS-475 (100 μM, 120 min).
(§1) In addition, SuTEx fragment EKT231 (see FIG. 46A) modifies EDC3 at tyrosine 475.

[2] = target: human prostaglandin reductase 2 (PTGR2) (Homo sapiens, UniProt Q8N8N7); assay: Chemical proteomics analysis and gel-based screen of human PTGR2 with HHS SuTEx ligands; type: binding
human prostaglandin reductase 2 (PTGR2), sequence (Q8N8N7 whole entry): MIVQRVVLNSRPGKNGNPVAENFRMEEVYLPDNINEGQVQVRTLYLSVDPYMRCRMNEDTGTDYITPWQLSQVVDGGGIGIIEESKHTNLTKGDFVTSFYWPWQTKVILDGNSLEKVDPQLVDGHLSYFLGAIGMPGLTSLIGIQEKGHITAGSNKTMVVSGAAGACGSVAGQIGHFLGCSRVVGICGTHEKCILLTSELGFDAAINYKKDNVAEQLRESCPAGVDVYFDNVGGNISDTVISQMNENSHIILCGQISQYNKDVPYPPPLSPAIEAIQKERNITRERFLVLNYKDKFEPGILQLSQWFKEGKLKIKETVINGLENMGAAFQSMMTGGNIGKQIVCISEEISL
Excerpt: FIGS. 45A and 45B: Modification of human prostaglandin reductase 2 (PTGR2) with HHS SuTEx ligands. HHS0701 modifies the tyrosine at residue 100.
as §1

[3] = tested on: HEK293T soluble proteomes; assay: LC-MS chemical proteomics of probe-modified sites in cell proteomes; type: binding, human; details: LC-MS chemical proteomics, FIG. 4A
Method: (§2) Proteomes were diluted to 2.3 mg/mL in PBS and sample aliquots (432 μL) were treated with sulfonyl-triazole or -fluoride probes at the indicated concentrations (5 μL, 100× stock in DMSO), mixed gently and incubated for 1 h at room temperature. Probe-modified proteomes were subjected to CuAAC conjugation to desthiobiotin-PEG3-azide (10 μL of 10 mM stock in DMSO; final concentration of 200 μM) using TCEP (10 μL of fresh 50 mM stock in water; 1 mM final concentration), TBTA ligand (33 μL of a 1.7 mM 4:1 t-butanol/DMSO stock, 100 μM final concentration), and CuSO4 (10 μL of 50 mM stock, 1 mM final concentration). Samples were mixed by vortexing and then incubated for 1 h at room temperature. Excess reagents were removed by chloroform-methanol extraction as previously described^51. Protein pellets were re-suspended in 500 μL of 6M urea/25 mM ammonium bicarbonate followed by DTT reduction and IAA alkylation as previously described^5. Excess reagents were removed by chloroform/methanol extraction as described above, and the protein pellet was re-suspended in 500 μL of 25 mM ammonium bicarbonate and then digested to peptides using trypsin/Lys-C (7.5 μg in 15 μL of ammonium bicarbonate, sequencing grade from Promega, Madison, Wisconsin, United States of America) was added to the mixture and incubated for 3 hrs at 37° C. Probe-modified peptides were enriched by avidin affinity chromatography, eluted, and prepared for LC-MS analysis as previously described^51.
A top 10 data-dependent acquisition MS method was used.
Sulfonyl-probe modifications of tyrosine, lysine, and other amino acids were included as a variable (common) modification of +635.27374 Da. […] A Byonic score of 300 was applied for a more inclusive initial evaluation of the search results and thereby consider more possible probe-modified sites. MS1 and MS2 spectra corresponding to the highest-scoring tyrosine- and lysine (internal or non-C terminal)-modified sequences (˜50-100 peptides) were manually verified. […] Distinct peptides containing probe-modified amino acid residues (termed sites) were determined by identifying all unique razor protein and site combinations across all of the proteomes tested.
To compare amino acid residues modified by sulfonyl probes, protein and peptide identifications were accomplished as described above with variable (common) modification of +635.27374 Da on the following amino acid residues: cysteine, aspartic acid, glutamic acid, histidine, lysine, methionine, asparagine, glutamine, arginine, serine, threonine, tryptophan, and tyrosine. For these amino acid comparisons, carbamidomethylation (+57.021464 Da) of cysteines was searched as a variable/common modification to allow for the potential of probe modification on cysteines. Comparisons of probe-modified sites across all probes and cell lines tested were performed using the R package ggplot2 (online at tidyverse.org). Venn diagrams for comparisons were generated using the VennDiagram R package^52.
Proteomes were digested with trypsin protease and desthiobiotin-modified peptides enriched by avidin affinity chromatography, released, and analyzed by high-resolution liquid chromatography-mass spectrometry (LC-MS). Probe-modified peptide-spectrum matches (PSMs) that met a quality control confidence criteria of ≥300 Byonic score^31 and ≤5 ppm mass accuracy were selected for further manual evaluation.

[4] = tested on: human cell proteomes (HEK293T, A549, DM93, H82, and Jurkat cells); assay: LC-MS chemical proteomics of probe-modified tyrosine sites across 5 cell proteomes; type: binding; details: HHS-465 and -475 together; 100 μM, 1 hr, 25° C.
Method: as §2, with “Probe-modified peptides were enriched by avidin affinity chromatography, eluted, and prepared for LC-MS analysis as previously described^51.” left out

HEK293T, Jurkat cells = assay: Live cell chemical proteomic profiling with SuTEx probes; type: cell-based, human; details: 100 μM, 2 hr, 37° C.; membrane and soluble fractions; both probes
Method: Cells grown to ˜90% confluency in 10 cm plates were treated with DMSO vehicle or sulfonyl-triazole probe (10 μL of 1000×DMSO stock) in serum-free media for the indicated concentrations and times at 37° C. with 5% CO2. After treatment, cells were washed with cold PBS twice before harvesting and preparation for gel-based chemical proteomic evaluation as described above. For LC-MS studies, protein concentrations were normalized to 2.3 mg/mL and 432 μL (for 1 mg final protein amount) were used for sample preparation as detailed below.
Proteomes were diluted to 2.3 mg/mL in PBS and sample aliquots (432 μL) were treated with sulfonyl-triazole or -fluoride probes at the indicated concentrations (5 μL, 100× stock in DMSO), mixed gently and incubated for 1 h at room temperature. Probe-modified proteomes were subjected to CuAAC conjugation to desthiobiotin-PEG3-azide (10 μL of 10 mM stock in DMSO; final concentration of 200 μM) using TCEP (10 μL of fresh 50 mM stock in water; 1 mM final concentration), TBTA ligand (33 μL of a 1.7 mM 4:1 t-butanol/DMSO stock, 100 μM final concentration), and CuSO4 (10 μL of 50 mM stock, 1 mM final concentration). Samples were mixed by vortexing and then incubated for 1 h at room temperature. Excess reagents were removed by chloroform-methanol extraction as previously described^51. […]

purified DPP3 = target: T2, purified DPP3 (Homo sapiens, UniProt Q9NY33); assay: DPP3 biochemical substrate assay (Arg-Arg β-naphthylamide peptidase assay); details: negative control with cyclopropyl-modified AG
T2 sequence (Q9NY33 1-737): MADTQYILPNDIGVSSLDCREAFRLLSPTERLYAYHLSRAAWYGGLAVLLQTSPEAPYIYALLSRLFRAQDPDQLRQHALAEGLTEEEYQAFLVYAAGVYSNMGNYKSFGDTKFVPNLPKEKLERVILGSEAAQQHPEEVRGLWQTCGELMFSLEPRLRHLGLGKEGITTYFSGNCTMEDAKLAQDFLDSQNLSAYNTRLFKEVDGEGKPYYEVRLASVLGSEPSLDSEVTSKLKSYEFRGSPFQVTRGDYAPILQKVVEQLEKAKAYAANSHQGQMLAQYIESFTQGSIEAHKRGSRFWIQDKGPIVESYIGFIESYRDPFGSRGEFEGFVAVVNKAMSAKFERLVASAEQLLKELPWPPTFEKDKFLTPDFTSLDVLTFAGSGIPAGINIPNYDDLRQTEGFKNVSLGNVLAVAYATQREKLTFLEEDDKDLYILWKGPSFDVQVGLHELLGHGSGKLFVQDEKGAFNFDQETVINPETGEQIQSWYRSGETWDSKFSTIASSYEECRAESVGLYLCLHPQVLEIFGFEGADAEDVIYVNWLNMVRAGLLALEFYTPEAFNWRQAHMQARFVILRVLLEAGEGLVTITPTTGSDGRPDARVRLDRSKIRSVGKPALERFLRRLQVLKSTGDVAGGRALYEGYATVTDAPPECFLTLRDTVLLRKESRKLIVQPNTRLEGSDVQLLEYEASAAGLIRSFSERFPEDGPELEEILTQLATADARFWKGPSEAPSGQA
Method: DPP3 Biochemical Substrate Assay
Substrate assays were performed using purified DPP3 protein diluted to 5 ng/μL in assay buffer. DPP3 samples (10 μl) were diluted to 85 μl with assay buffer and transferred to a black 96-well plate. Samples were treated with a 50× stock of SuTEx-fragment at indication concentration for 30 min at 37° C. A stock solution of DPP3 substrate (Arg-Arg β-naphthylamide trihydrochloride, 0.5 mM: Sigma-Aldrich. St, Louis, Missouri, United States of America) was diluted to 100 μM in assay buffer. Substrate solution (5 μl) was added to each sample. Samples were mixed briefly by shaking and reaction monitored in kinetic mode by measuring fluorescence at 450 nm for 10 min on a BMG Labtech CLARIOstar plate reader (BMG Labtech, Cary, North Carolina, United States of America).

DM93 soluble proteomes = assay: Proteome-wide competitive chemical proteomics of SuTEx fragments vs HHS-482; type: binding, human; details: fragment 50 μM, 30 min, 37° C.
Method: Heavy and light proteomes (432 μl of each) were diluted to 2.3 mg ml^−1 in PBS and sample aliquots (432 μl) were treated with SuTEx fragment at the indicated concentrations (5 μl, 100× stock in DMSO), mixed gently and incubated for 30 min at 37° C. Samples were then treated with HHS-482 (5 μL, 5 mM stock in DMSO) for 30 min at 37° C. Probe-modified proteomes were conjugated to desthiobiotin-PEG3-azide followed by enrichment of probe-modified peptides for nano-electrospray ionization-LC-MS/MS analyses as previously described^57.
The chemical proteomic method for functional tyrosine profiling^72 was tailored to investigate AG/LG effects on SuTEx fragment reactivity in complex proteomes. In brief, isotopically light and heavy soluble proteomes from DM93 melanoma cells cultured by stable isotopic labeling by amino acids in cell culture (SILAC^80) media were used for quantitative liquid chromatography-mass spectrometry (LC-MS) studies. Light and heavy DM93 proteomes were treated with dimethyl sulfoxide (DMSO) vehicle or SuTEx fragment (50 μM, 30 min, 37° C.), respectively, followed by labeling with the tyrosine-reactive probe HHS-482 described hereinabove (50 μM, 30 min, 37° C.) and copper-catalyzed azide-alkyne cycloaddition (CuAAC) conjugation of a desthiobiotin-azide enrichment tag. Proteomes were digested with trypsin protease, HHS-482-modified peptides enriched by avidin chromatography and analyzed by high-resolution LC-MS/MS and bioinformatics as described hereinabove.
To evaluate substituent effects on proteome activity, reactivity profiles of each respective SuTEx fragment were compared across >1500 total distinct HHS-482-modified tyrosine sites from >650 detected proteins. Fragments were screened across independent biological replicates (n=2-3) and high-quality tyrosine site annotations were identified by detection in at least a single biological replicate from each fragment dataset, probe-specific enrichment (HHS-482 probe/DMSO SILAC ratio (SR)>5), and quality control confidence criteria of ≥300 Byonic score^31, […] protein false discovery rate (FDR), and ≤5 ppm mass accuracy in order to minimize the potential for false positives^72. SILAC ratios (SR) from competitive studies (Light-DMSO/Heavy-fragment) were used to identify fragment-competed tyrosine residues as sites showing >75% reduction in enrichment by HHS-482 compared with DMSO vehicle control (i.e. liganded tyrosines, SR>4). In total, 305 liganded tyrosines on 213 distinct proteins were identified, corresponding to ˜30% and ˜44% of total quantified tyrosines and proteins, respectively. […]

inhibition of FAAA, gel-based chemical proteomic analysis ([1]; FIG. 44C): dose-dependent inhibition
tyrosine residue of FAAA modified ([1]; ligand 25 μM): 244
SMILES: O=C(NCc1ccccc1)c1ccc(S(=O)(=O)n2cnnc2)cc1 [HHS0401]

inhibition of PTGR2, gel-based chemical proteomic screen ([2]; FIG. 45B): dose-dependent inhibition
tyrosine residue of PTGR2 modified ([2]; ligand 25 μM): 100
SMILES: O=C(c1ccc(S(=O)(=O)n2cnnc2)cc1)N1CCC(c2ccccc2)CC1 [HHS0701]

SMILES: C#CCNC(=O)c1ccc(S(=O)(=O)n2nccn2)cc1 [HHS-465, 4-((2H-1,2,3-Triazol-2-yl)sulfonyl)-N-(prop-2-yn-1-yl)benzamide]
tyrosine specificity, Y/K ratio of modified sites [3]: 2.5
tyrosine sites identified in aggregate across 5 cell proteomes [4]: ~8,000 sites
distinct tyrosine sites measured in live cell studies, in total per cell line (HEK293T, Jurkat cells): ~3,500 sites

activity against DPP3 in substrate assay (purified DPP3): inactive
SMILES: COc1ccc(-c2ncn(S(=O)(=O)C3CC3)n2)cc1 [JWB131, 1-(Cyclopropylsulfonyl)-3-(4-methoxyphenyl)-1H-1,2,4-triazole]
reactivity against the proteome (DM93 soluble proteomes): largely unreactive
